“And” between values parts separate entries of the source, which are not always exact repeats. Equal entries are not always repeated.
Tests used:
[1] = target: T1, Cif (Pseudomonas aeruginosa, UniProt A0A0H2ZD27); assay: biochemical; conditions: Fluorescent assay IC50, Table 7, small molecule inhibitors
T1 construct: made in house
Description: Fluorescent-based Cif Inhibitory assay. Activity of enzyme was measured using a sensitive fluorescent-based assay similar to the method previously described for other EHs (29,30). Cyano(6-methoxynaphthalen-2-yl)methyl glycidyl carbonate (CMNGC) was used as a fluorescent reporter substrate. […] A schematic of the assay is depicted in FIG. 1.
Reported IC50 values are the average of triplicates with at least two data points above and at least two below the IC50. […] Control experiments without Cif (inhibitor/VHH and substrate) were used to evaluate the intrinsic fluorescence of inhibitors.

[2] = target: T1, Cif; assay: Octet bio-layer interferometry; format: binding; conditions: steady state analysis, 30° C.
Description: Octet Bio-Layer Interferometry: KD of Cif and their inhibitors was determined by Bio-Layer Interferometry using an Octet Red instrument (ForteBio). Recombinant Cif-His was prepared as described previously (20,29). Stocks of purified proteins were stored at 4° C. until used.

[3] = target: T1, Cif; assay: Competitive or displacement sandwich ELISA (dsELISA) with Nb 219; format: binding
Description: 2). Competitive or Displacement Sandwich assay. A 96-well plate was coated with pAb at 3 μg/mL, 100 μL per well at RT for 1 h. The plate was blocked with 1% skimmed milk in PBST at RT for at least 2 h. Cif in PBS was loaded at 20 ng/mL, 100 μL/well and incubated for 1 h at RT. Following 5 times wash with PBST, a serial dilution of small molecule synthetic inhibitors in PBS containing 20% methanol at 50 μL/well was loaded, followed by 50 μL/well of VHH at 0.1 μg/mL (or 5 ng/well) in PBS and incubated for 1 h at RT. Mouse anti-HA-HRP conjugate was added at 100 μl/well in a 1:3000 dilution as instructed by manufacturer. The plate was incubated for 1h at RT and washed 5 times. The plate was developed for 10 min with substrate solution added at 100 μl/well. The reaction was stopped by addition of 2M H2SO4 (50 μl/well) and absorbance was read at 450 nm. SigmaPlot 11.0 software was used for curve fitting and data analysis.
Development of nanobody-based screening assay. […] In this assay, the plate was coated with polyclonal anti-Cif antibody (pAb) that captured Cif-protein. Inhibitory anti-Cif Nb in role of a reporter was added at constant concentration together with a serial dilution of a tested inhibitor. […] In this assay, the amount of anti-Cif pAb loaded in the plate was optimized first. […] Second, the amount of Cif-protein captured on pAb was optimized. […] Both nanobodies 113 and 219 were evaluated in the inhibitory assay.

T1 sequence (A0A0H2ZD27 25-319 limits assumed): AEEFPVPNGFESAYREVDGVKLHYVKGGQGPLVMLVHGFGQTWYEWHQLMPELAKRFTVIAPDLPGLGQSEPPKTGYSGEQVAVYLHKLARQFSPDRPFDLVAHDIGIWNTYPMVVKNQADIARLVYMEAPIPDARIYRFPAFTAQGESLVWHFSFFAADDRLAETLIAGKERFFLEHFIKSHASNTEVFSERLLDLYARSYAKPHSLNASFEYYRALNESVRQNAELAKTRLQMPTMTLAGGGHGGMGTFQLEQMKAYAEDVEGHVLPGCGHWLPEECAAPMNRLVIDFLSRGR

| Structure (SMILES) | IC50 [1] | Kd [2] | EC50 [3] [µM] | fold more potent than 8c ([3]; nanobody-based inhibitory sandwich ELISA) [fold] |
| --- | --- | --- | --- | --- |
| CCC(=O)Nc1cc(Cl)c(Oc2ccc(O)c(-c3ccc(C(N)=O)c(F)c3)c2)c(Cl)c1 [Compound 8, 5′-(2,6-dichloro-4-propionamidophenoxy)-3-fluoro-2′-hydroxy-[1,1′-biphenyl]-4-carboxamide] | ~0.5 µM and 0.47 µM | 0.16 µM and 0.2 µM | 0.2 | 1 |
| NC(=O)c1ccc(-c2cc(Oc3c(Cl)cc(N)cc3Cl)ccc2O)cc1 [Compound 7, 5′-(4-amino-2,6-dichlorophenoxy)-2′-hydroxy-[1,1′-biphenyl]-4-carboxamide] | ~0.5 µM and 0.55 µM | 0.9 µM | 0.7 |  |
| O=C(O)CC(=O)Nc1cc(Cl)c(Oc2ccc(O)cc2)c(Cl)c1 [Compound 1, 3-((3,5-dichloro-4-(4-hydroxyphenoxy)phenyl)amino)-3-oxopropanoic acid, reference compound] | > 50 µM |  | > 200 |  |

From US12006355B2, “Nanobodies against cystic fibrosis transmembrane conductance regulator (CFTR) inhibitory factor (Cif)” (priority 2017, dated 2024)
